These results are taken from patent publication US20100305198A1, “CATIONIC LIPIDS” (THE UNIVERSITY COURT OF THE UNIVERSITY OF EDINBURG, priority 2007, published 2010).

Series [1] deals with GFP-expressing mES cells. Description: Transfection of siRNA into GFP-expressing mouse stem cells (GFP knock-down, flow cytometry). Format: cell-based. The settings on record: 48 h. How it is done:
(§1) The corresponding cationic lipid 6a-l (1 mM in methanol) with or without DOPE (1 mM in methanol) were mixed in different proportions and the organic solvent removed by evaporation in an oven (37° C.) overnight. The resultant thin films were then hydrated with PBS. The solutions were vortexed (10-20 s) and incubated at ambient temperature for 30 min. Plasmid DNA or siRNA solution (0.04 mg/mL in PBS or another isotonic solution) was subsequently added and the solution vortexed (10-20 s). The lipoplexes were incubated at room temperature for 30 min before being used.
mES cells were grown in GMEM supplemented with 4 mM glutamine and 10% FBS in the absence of antibiotic until 80% confluence. Cells were then suspended using trypsin/EDTA and counted. 2×10^4 cells in 150 μL of GMEM-CM per well were seeded in 96-well plates and incubated overnight. The day afterwards, the different lipoplex formulations were added. […]
After incubation for two days at 37° C. and 5% CO2 (change of media after transfection was not necessary), the green fluorescent protein (GFP) reduced expression was measured by flow cytometry. For the flow cytometry analysis, cells were washed twice with PBS, detached with trypsin/EDTA, harvested with 2% FBS in PBS, centrifuged and resuspended with 2% FBS in PBS and analyzed using a BD FACSaria flow cytometer. […] In Vivo Transfection and Non-Invasive Luminescence Imaging from Living Mice
(In flow cytometry, cells or beads pass a laser one at a time.)

Series [2] concerns human embryonic kidney (HEK) 293T cell line. Description: Transfection of pEGFP-C1 into HEK293T cell line (flow cytometry). Format: cell-based. The procedure:
as §1

Series [3] deals with HeLa cells. The experiment in a line: Transfection of pEGFP-C1 into HeLa cell line (GFP expression by flow cytometry). Format: cell-based, Human. How it is done: as §1
Human HeLa cells were grown in RPMI supplemented with 4 mM glutamine, 10% FCS and 100 units/ml penicillin/streptomycin (RPMI-CM) until 80% confluence. Cells were then suspended using trypsin/EDTA and counted. 2×10^4 cells in 150 μL of RPMI-CM per well were seeded in 96 well plates and incubated overnight. The day afterwards, the different lipoplex formulations were added. Each experiment was performed in quadruplicate, using Effectene® Transfection Reagent (Qiagen) and Lipofectamine™ 2000 (Invitrogen) as positive control and untreated cells as negative control.
After incubation for two days at 37° C. and 5% CO2 (the change of media after transfection was not necessary), the green fluorescent protein (GFP) expression, consequence of transfecting the pEGFP-C1, was evidenced using a fluorescent microscope (Leica) and measured by flow cytometry. For the flow cytometry analysis, cells were washed twice with PBS, detached with trypsin/EDTA, harvested with 2% ferum bovine serum (FBS) in PBS, centrifuged and resuspended with 2% FBS in PBS and analyzed using a BD FACSaria flow cytometer. Transfection efficiency was measured as percentage of transfected cells and total mean fluorescence. […] The number of cells analyzed per sample was 10,000. […] Each point represents a cell. The second column of graphs represents cell number in the y-axis and fluorescence intensity in the x-axis. All the graphs have been divided into two populations of cells according with the fluorescence intensity in order to give a reference for the transfection analysis: in the untransfected cell control P1 comprises 95% of the total number of cells analyzed; when cells are transfected with compound 6f P1 comprises 19.1% of the total number of cells analyzed; within the cells transfected with Effectene® Transfection Reagent P1 comprises 35.8% of the total number of cells analyzed; when cells transfected with Lipofectamine™ 2000, P1 comprises 49.8% of the total number of cells analyzed. FITC-A Mean is the mean fluorescence (arbitrary units) calculated for each population. The mean fluorescence calculated for P2 of the cells transfected with compound 6f is 120,059, which is, by far, the best result of (A)-(D).

Series [4] has as its system B16F10 mouse melanoma cells. Description: Transfection of pEGFP-C1 into B16F10 cell line (flow cytometry). In kind it is cell-based. How it is done: as §1
Series [5] has as its system mouse lung. Description: In vivo transfection of luciferase-reporter plasmid (pLux) by intratracheal instillation and non-invasive luminescence imaging. How it is done:
Mice were anesthetized and intubated following standard protocols. 16 μg of a luciferase-reporter plasmid (pLux, 4-6 mg/mL in PBS or another isotonic buffer) was complexed with Oleyl derivative 6i (N/P 12, 1:2 mol mixture with DOPE) following the protocol described before. Lipoplex formulation (total volume=50 μL) and naked plasmid (16 μg of plasmid in 50 μL of PBS) were then administrated into the lung by direct intratracheal instillation through peroral intubation.
Firefly luciferin (15 mg/kg) was intraperitoneally administrated to the anesthetized mice half an hour before scanning for luminescence. Mice were then imaged every 2 minutes using an IVIS SPECTRUM imaging device. FIGS. 9 and 10 show the non-invasive in vivo luminescence imaging of anesthetized mice transfected with 16 μg of a luciferase-reporter plasmid (pLux) complexed with derivative 6i (left mouse) and naked plasmid (right mouse) 72 and 120 hours after instillation respectively.

The structures appear in SMILES notation.

`CCCCCCCCCCCCCCC(=O)NC(COC(=O)CCCN)(COC(=O)CCCN)COC(=O)CCCN` [Compound 6f, N-[tris-(4-aminobutiryloximethyl)methyl]pentadecamide]: the “Knock-down of GFP expression compared with Lipofectamine 2000” value in series [1] (GFP-expressing mES cells) is given as “better than Lipofectamine™ 2000”. Moreover, in series [1] (GFP-transformed mouse stem cells, N/P 12, 1:2 mol mixture with DOPE, preliminary assays), the “Knock-down of GFP expression” value amounted to 40%. Moreover, the entries for the “% of GFP-expressing cells calculated via flow cytometry” value in series [2] and in series [4] were 62% and 43%, respectively. In series [3] (HeLa 48 h after transfection with reporter plasmid, 10,000 cells per sample, P1 = 95% in untransfected control, 6f at N/P 12, 1:2 mol mixture with DOPE), the “P1 population as % of the total number of cells analyzed” value is on record as 19.1%. Further, in series [3] (HeLa 48 h after transfection, N/P 12, 1:2 mol mixture with DOPE), the “Mean fluorescence (FITC-A Mean) calculated for P2” value is 120,059 arbitrary units. For the same compound, in series [3] (pEGFP-C1, 48 h, N/P ratio 12, 1:2 mol mixture with DOPE), the “Transfection of HeLa cells compared with the positive controls (Lip2000 and Effectene)” value was “much better than the two positive controls”.

In the case of `CCCCCCCCC=CCCCCCCCC(=O)NC(COC(=O)CCCN)(COC(=O)CCCN)COC(=O)CCCN` [Compound 6i, N-[tris-(4-aminobutiryloximethyl)methyl]-9-octadecenamide], the “% of GFP-expressing cells calculated via flow cytometry” value in series [2] is listed as 54%; in series [4] it was 61%. Besides, the “In vivo luminescence after luciferin” value in series [5] (16 μg pLux complexed with lipid (N/P 12, 1:2 mol mixture with DOPE), intratracheal instillation, 72 and 120 hours after instillation) is given as “positive luminescence was detected”. For the same compound, the “Health of mice during the study” value in series [5] (lipoplex instilled into the lung, followed on a daily basis) is “behaved healthily”.

Turning to `CCCCCCCCC=CCCCCCCCCOC(=O)CCC(=O)NC(COC(=O)CCCN)(COC(=O)CCCN)COC(=O)CCCN` [Compound 13b, 9-octadecenyl [tris(4-aminobutanoyloxymethyl)methyl]amidosuccinate], the “Percentage of transfected (GFP-expressing, fluorescent) cells” value in series [3] (HeLa 48 hours after transfection with GFP-reporter plasmid, FIG. 6) worked out at 79%.
